Several values for one entry are separate records, joined by “and”; a condition that tells them apart may be missing. Equal entries are not always repeated.
Tests used:
[1] = tested on: mice intoxicated with aurothioglucose; assay: Protective effect against the action of aurothioglucose (hyperphagia, stomach weight, weight gain); type: in vivo; set-up: Decrease in the stomach weight with respect to the aurothioglucose reference: unit not given here; conditions: for Action against hyperphagia and weight gain of mice intoxicated with aurothioglucose: given 1/2 hour before aurothioglucose 250 mg/kg; for Weight increase: 15 days after beginning, aurothioglucose alone 49%
Experimental: Hunger and thirst regulation is dependent on stimulating secretions from the hypothalamus. These regulator centers may be disturbed either in acquired manner in genetically obese animals, either consequently to the destruction of the involved centers by selective poisons, such as aurothioglucose.
If 250 mg/kg of aurothioglucose are injected to mice, then the cells of the hypothalamic nuclei will degenerate and cause an hyperphagia syndrome in animals which is evidenced by:
a distension of the stomach,
a considerable increase in ponderal growing.
The mice were treated with one of the products of the invention 1/2 hour before the intraperitoneal injection of aurothioglucose (250 mg/kg).

fish chromatophores = assay: Action on the fish chromatophores (time of blackening); type: in vivo, Phoxinus Phoxinus Linne; conditions: at minimum effectual concentration
Experimental: The physiology of fish chromatophores is dependent on hypothalamic secretions of the lower portion of the diencephalon. The psychotropic and cerebral-orientation drugs can modify the physiology of these regions [J. Thuillier et al. C.R. Soc. […] This test is known to evidence the action of the products on the diencephalon which controls distension and blackening of fish chromatophores. […] The time for the fish blackening to occur was measured. The same test was effected with Meclofexonate.

mice = assay: Acute toxicity (LD 50) per os and intraveinous, Litchfield and Wilcoxon method; type: in vivo; conditions: for LD 50 I.V.: intraveinous; for LD 50 P.O.: per os
Experimental: The toxicities were calculated according to the LITCHFIELD and WILCOXON method (J. Pharm. and Exp. Therap. 1949, 96, p. 99, 113).
The products were administered per os and per intraveinous route to mice.

cerebral oedema of rats = assay: Actions on cerebral oedema caused by triethyltin chloride; type: in vivo; conditions: 50 mg per kilogram
Experimental: The alkylated tin compounds are toxic and cause selective oedema of the central nervous system and in particular of the brain (Works of R. KATZMAN et al. Arch. Neurol. 9, 178, 1963). The water content of the cerebral tissue is increased. Similarly, the cerebral sodium content increases, while the potassium is reduced.
100 mg per kg of Meclofenoxate are required to provide the same result.

central nervous system = assay: Actions on the central nervous system (overall statement); type: in vivo; conditions: versus Meclofenoxate
genetically obese mice [2] = assay: Action on genetically obese mice; type: in vivo; set-up: Alimentary consumption: unit not given here; conditions: for Weight: in g
rats = assay: Orientation test after an electroshock; type: in vivo
Excerpt: This test consists in causing a loss of orientation and motive disorders in rats after repetition of 4 series of electroshock [M. Herold: Acta. Int. Meet. Psycho. Drug.

genetically obese mice [3] = assay: Action on genetically obese mice; type: in vivo; conditions: for Decrease in weight: obese mice, gastric ingestion, 18 days
Experimental: Finally, gastric ingestion during 18 days of 200 mg/kg of PM 170 causes, in obese mice, a steady decrease in weight of 8.3%, while in the same conditions there occurs, with Meclofenoxate, a decrease in weight of 2.2%.

[4] = tested on: mice rendered obese by aurothioglucose; assay: Curative action after development of obesity under the action of aurothioglucose; type: in vivo; conditions: for Decrease in weight/Aurothioglucose references: 18 days, per os; for Activity compared with Meclofenoxate at 200 mg/kg: in words
Experimental: Mice were rendered obese by intra-peritoneal injections of aurothioglucose (800 mg/kg).
After the development of obesity, a plateau was obtained in the weight curve. There was then selected an homogenous group of mice and treatment with PM 170 and Meclofenoxate was initiated. The results obtained were compared with a group of reference mice treated only with aurothioglucose (ATG controls).

Diuretic action = type: in vivo
blood platelet clotting = assay: Effect against blood platelet clotting (pia-mater vessels); type: in vivo, rabbits; conditions: dose not stated
Experimental: All the products of the invention prepared according to Examples 1 and 2 at a dose of 10 mg/kg have an effect against plaquette aggregation which was observed on the pia-mater vessels of rabbits [M. M. G. BOZEIX 7th. Int. Congress of Pharmacology, Paris, July 1978].

SMILES | Decrease in the stomach weight with respect to the aurothioglucose reference ([1]; 100 mg/kg P.O) | Action against hyperphagia and weight gain of mice intoxicated with aurothioglucose [1] | Time of occurrence of the blackening (fish chromatophores) [s] | LD 50 I.V. (mice) [mg] | LD 50 P.O. (mice) [mg] | Effect on the build up of Na+ (cerebral oedema of rats) | Effect on the loss of K+ (cerebral oedema of rats) | Occurrence of the oedema caused by triethyltin chloride (cerebral oedema of rats) | Weight increase [1] [%] | Decrease in weight (genetically obese mice [3]; 200 mg/kg) [%] | Decrease in aliment consumption/ATG references ([4]; 50 mg/kg) | Decrease in weight/Aurothioglucose references ([4]; 50 mg/kg per day) | Decrease in aliment consumption/ATG references ([4]; 100 mg/kg) [%] | Decrease in weight/Aurothioglucose references ([4]; 100 mg/kg per day) [%] | Decrease in aliment consumption/ATG references ([4]; 200 mg/kg) | Decrease in weight/Aurothioglucose references ([4]; 200 mg/kg per day) [%] | further results
CN1CCCCC1COC(=O)COc1ccc(Cl)cc1 (centres unmarked) [PM 172, N-methyl-2-hydroxymethyl-piperidine 4-chloro-phenoxyacetate] | 2.2727 | counteract both hyperphagia and the weight gain | 60 | 160 | 1500 | limit the build up of Na^+ | counteract the loss of K^+ | considerably reduce the occurrence of the oedema |  |  |  |  |  |  |  |  | Decrease in the stomach weight with respect to the aurothioglucose reference ([1]; 60 mg/kg P.O): 2.6299
CN1CCCC(COC(=O)COc2ccc(Cl)cc2)C1 (centres unmarked) [PM 170, N-methyl-3-hydroxymethyl-piperidine (4-chloro-phenoxyacetate)] | 4.2287 | counteract both hyperphagia and the weight gain | 90 | 175 | 2300 | limit the build up of Na^+ | counteract the loss of K^+ | considerably reduce the occurrence of the oedema | 34 | 8.3 | 10% | 5% | 33 | 12 | 36% | 14 | Decrease in the stomach weight with respect to the aurothioglucose reference ([1]; 20 mg/kg P.O): 3.2155; Decrease in the stomach weight with respect to the aurothioglucose reference ([1]; 50 mg/kg P.O): 2.8729; Activity against increase of the stomach weight distension ([1]; in words): very high activity; Activity on the central nervous system relative to Meclofenoxate (central nervous system): from five to twelve times more active than Meclofenoxate; Alimentary consumption (genetically obese mice [2]; treated normal males, 200 mg/kg, normal male controls 6.307 ± 0.746): 4.716 ± 0.880; Weight (genetically obese mice [2]; treated normal males, 200 mg/kg, normal male controls 25.34 ± 0.365): 22.22 ± 0.484; Alimentary consumption (genetically obese mice [2]; treated obese males, 200 mg/kg, obese male controls 6.786 ± 0.853): 4.384 ± 0.886; Efficacy in orientation test after electroshock (rats; 100 mg, first 2 series of electroshock): slightly effective; Activity on alimentary consumption and weight development (genetically obese mice [3]; genetically obese mice of 42-42.5 g, in words): active both on alimentary consumption and on weight development; Weight (genetically obese mice [3]; treated obese males, 200 mg/kg, obese male controls 43.3 ± 0.284, in g): 39.3 ± 0.882; Toxicity compared with Meclofenoxate / overall toxicity (mice; in words): less toxic than "Meclofenoxate"; Activity compared with Meclofenoxate at 200 mg/kg ([4]; 50 mg/kg): same activity at 50 mg/kg than Meclofenoxate at 200 mg/kg; Activity compared with Meclofenoxate at 200 mg/kg ([4]; 200 mg/kg): markedly higher than Meclofenoxate at 200 mg/kg; Diuretic action (Diuretic action; 100 mg/kg): slight diuretic action
CCN1CCCC(OC(=O)COc2ccc(Cl)cc2)C1 (centres unmarked) [PM 168, N-ethyl-3-piperidine 4-chloro-phenoxyacetate] | 2.5510 | counteract both hyperphagia and the weight gain | 30 | 140 | 1800 | limit the build up of Na^+ | counteract the loss of K^+ | considerably reduce the occurrence of the oedema |  |  |  |  |  |  |  |  | Decrease in the stomach weight with respect to the aurothioglucose reference ([1]; 150 mg/kg P.O): 3.37
CN(C)CCOC(=O)COc1ccc(Cl)cc1 [Meclofenoxate, dimethylaminoethyl 4-chlorophenoxyacetate, reference compound] |  |  | 90 | 350 | 1750 |  |  |  | 45 | 2.2 | inactive | inactive | 26 | 10 | 23% and 22.9% | 5 | Decrease in the stomach weight with respect to the aurothioglucose reference ([1]; 250 mg/kg P.O): 2.2495; Decrease in the stomach weight with respect to the aurothioglucose reference ([1]; 300 mg/kg P.O): 1.6129; minimal effective dose ([1]; Mus musculus, stomach weight, Table IV, read-out: Dosage at which (only) active): 250 mg/kg; Times less active than PM 170 ([1]; stomach weight, versus PM 170): 12.4 times; Activity to counteract obesity caused by aurothioglucose ([1]; versus PM 170, in words): less active than PM 170; Alimentary consumption (genetically obese mice [2]; treated normal females, 300 mg/kg, normal female controls 6.703 ± 0.597): 5.842 ± 0.842; Weight (genetically obese mice [2]; treated normal females, 300 mg/kg, normal female controls 25.3 ± 0.504): 24.8 ± 0.602; Alimentary consumption (genetically obese mice [2]; treated obese females, 300 mg/kg, obese female controls 6.347 ± 0.637): 5.542 ± 0.302; Weight (genetically obese mice [2]; treated obese females, 300 mg/kg, obese female controls 42.5 ± 0.787): 41.2 ± 0.802; Efficacy in orientation test after electroshock (rats; up to 200 mg/kg): absolutely inefficient; Diuretic action (Diuretic action; dose not stated): no effect against blood platelet clotting nor diuretic action; Effect against blood platelet clotting (blood platelet clotting): no effect against blood platelet clotting

Reference: US4425352A, “Substituted phenoxyacetates of cyclic amines” (Agence Nationale de Valorisation de la Recherche, priority 1980, dated 1984)
